# Experimental data reported in patent US10774098B2, “Nahlsgen optical resolution method” (KYOTO UNIVERSITY, priority 2016, dated 2020).
# System: normal human epidermal cells
# Experiment: glutathione production promotion activity (glutathione reductase recycling assay)
# Assay type: cell-based
# Conditions: for GSH (pmol/μg protein) Mean: cultivation for 24 hours
# Excerpt: The equal amount mixture obtained in Example 1 was used as a sample and evaluated for glutathione production promotion activity by the following procedure.
# Specifically, normal human epidermal cells were inoculated to a 96-well microplate housing a normal human epidermic keratinocyte growth medium (trade name HuMedia KG2, supplied by Kurabo Industries Ltd.) in a cell density of 2.0×10^4 cells per 96 wells.
# Twenty-four (24) hours after the inoculation, the medium was exchanged with a normal human epidermic keratinocyte growth medium (trade name HuMedia KB2, supplied by Kurabo Industries Ltd.) containing the sample in a predetermined concentration, and the cultivation was continued.
# As a positive control, a cultivation was performed by a procedure similar to above, except for using, instead of the sample, Nahlsgen (DL-2-amino-4-[(RSp)-(3-carboxymethylphenoxy)(methoxy)phosphoryl]butanoic acid, trade name GGsTop, supplied by Wako Pure Chemical Industries, Ltd.).
# As a blank, a cultivation was performed a procedure similar to above, except for not using the sample.
# After cultivation for 24 hours, the cells were disrupted by ultrasonication using a phosphoric acid buffer containing 100-μM phenylmethylsulfonyl fluoride, and the total amount of glutathione was quantitatively measured by the after-mentioned glutathione reductase recycling assay.
# Specifically, the disrupted cell suspension was combined with reduced nicotinamide adenine dinucleotide phosphate and glutathione reductase, followed by reaction at 37° C. for 10 minutes.
# Next, 0.1 M phosphate buffer solution (containing 0.5 M EDTA, pH 7.5) containing 10 mM 5,5′-dithiobis(2-nitrobenzoic acid) was added, the absorbance (at 450 nm) was measured immediately after addition, and after 30 minute-incubation, and the difference between two measurements ((absorbance after 30 minute-incubation)−(absorbance immediately after addition)) was defined as an index for glutathione synthesis quantity.
# The total amount of glutathione in the disrupted cell suspension was calculated on the basis of a calibration curve plotted using oxidized glutathione. The protein content in the disrupted cell suspension was quantitatively determined using the Pierce Microplate BCA Protein Assay Kit (Thermo SCIENTIFIC). The glutathione synthesis quantity was evaluated for differences from the untreated specimen (blank) and from the positive control by a significant difference test using Student's t-test.
Molecule,GSH (pmol/μg protein) Mean (Conc. 10.00 μmol/L) [pmol/μg protein],GSH (pmol/μg protein) Mean (Conc. 2.00 μmol/L) [pmol/μg protein],GSH (pmol/μg protein) Mean (Conc. 50.00 μmol/L) [pmol/μg protein],GSH (pmol/μg protein) Mean (Conc. 250.00 μmol/L) [pmol/μg protein],"glutathione (GSH) amount compared with the blank (untreated cells) (result in words, summary of Table 1)"
"COP(=O)(CC[C@H](N)C(=O)O)Oc1cccc(CC(=O)O)c1 (mixture of isomers) [Nahlsgen, DL-2-amino-4-[(RSp)-(3-carboxymethylphenoxy)(methoxy)phosphoryl]butanoic acid]",44.7,–,–,–,–
equal-amount mixture of D-2-amino-4-[(Rp)-(3-carboxymethylphenoxy)(methoxy)phosphoryl]butanoic acid monohydrate and L-2-amino-4-[(Sp)-(3-carboxymethylphenoxy)(methoxy)phosphoryl]butanoic acid monohydrate [Example 1],48.1,44.2,38.0,41.5,significantly increased glutathione (GSH) amount as well as or better than the cells treated with Nahlsgen
